The text below walks through data of patent US12194230B2, “Methods, devices and systems for pulmonary delivery of active agents” (priority 2014, dated 2025).

Series [1] in a line: PK/PD study: plasma Δ^9-THC levels after single-dose inhalation of Cannabis flos with the metered-dose inhaler.
In series [2] the test system is patients suffering from neuropathic pain. Briefly: VAS pain intensity after single-dose inhalation (PK/PD study). The series is classed as in vivo, human. Here is the method:
The study was used to further evaluate the pharmacodynamic effect of pulmonary delivery of Δ^9-THC on pain reduction from baseline using a 10 cm visual analog scale (VAS) pain scale (0 being no pain; and 10 being worst possible pain); for monitoring adverse effects, blood pressure and heart rate, and for estimating the degree of satisfaction with the use of the MDI on a 0-10 scale.
(§1) Pain intensity reduction was assessed as a therapeutic effect by asking participants to indicate the intensity of their current pain on a 100 mm visual analog scale (VAS) between 0 (no pain) and 100 (worst possible pain) at baseline (prior to the inhalation) and at 20 and 90 minutes following the pulmonary delivery of the pharmaceutically active agent from cannabis. Adverse effects, in the form of psychotropic symptoms, were recorded at 5, 15, 30, 60 and 120 minutes post pulmonary delivery, along with those spontaneously reported by the participants. Adverse effects were evaluated according to standardized criteria in terms of severity, frequency, duration and relationship to the study's active agent. Adverse effects were graded using the NIH Division of AIDS table for scoring severity of adult adverse experiences. Blood pressure and pulse rate were also recorded before, during and after the pulmonary delivery.
(§2) Results are reported herein as mean values±1 standard deviation (±SD). For each one of the measured effects (VAS pain intensity, systolic and diastolic blood pressure, heart rate and satisfaction score), the mean and 95% confidence interval (CI) at different time points was plotted. Differences between VAS pain intensity values and satisfaction scores, before and after inhalation, were tested by two-tailed paired Student t-test. Blood pressure and heart rate values were compared among different time points by one-way ANOVA. P-values<0.05 were accepted as significant. All statistical analyses were performed using Minitab Statistical Software, version 16.

Series [3] shares this test system. Briefly: Adverse effects, blood pressure and heart rate after single-dose inhalation (PK/PD study). Format: in vivo, human. As to conditions: for heart rate: baseline 71±12, P=0.873; for mean diastolic blood pressure: baseline 82±9, P=0.410; for mean systolic blood pressure: baseline 133±13, P=0.068; for adverse effects (overall): single inhalation, 8 patients. How it is done:
as §1, §2

For series [4] the following is noted: cited from earlier work; for mean Cmax increase per mg Δ^9-THC: Huestis et al.
For series [5], the system named is patients suffering from chronic neuropathic pain. The note with it: cited from earlier work; for reduction of pain intensity: vaporized 10.3 mg total available Δ^9-THC in two sessions.
Where [6] appears, read: single inhalation, 3.08±0.02 mg total available Δ^9-THC.

“And” between values parts separate entries of the source, which are not always exact repeats. Equal values may be shown once. Read-outs that look alike come from different tables or passages of the source.

With `CCCCCc1cc(O)c2c(c1)OC(C)(C)[C@@H]1CCC(CO)=C[C@@H]21` [11-OH-THC, 11-hydroxy Δ^9-THC], the “plasma levels of the active metabolite” value in series [1] (blood sampling 0-120 minutes after inhalation) is “No measurable plasma levels”.

`CCCCCc1cc(O)c2c(c1)OC(C)(C)[C@@H]1CCC(C)=C[C@@H]21` [Δ^9-THC, Δ9-tetrahydrocannabinol]: in series [2] (20 minutes after inhalation, baseline 7.5±1.4, 95% CI 2.1-4.9, P=0.001), the “decrease of VAS pain intensity from baseline (difference)” value was determined as 3.4 points. For the same molecule, the “VAS pain intensity versus baseline” value in series [2] (90 minutes post-dosing) was “virtually identical results as at baseline”. In addition, the “reduction of pain intensity” value in series [2] (setting [6]) is 45%; in series [5] (Wilsey et al. 2013, 3 hours) it was 31%; in series [5] (Wilsey et al. 2013, 5 hours) it was 25%. Further, the “time within which the pain reduction reversed” value in series [2] (setting [6]) is not above 90 min. Also, the heart rate in series [3] (30 minutes post-inhalation) was found to be 72±11 bpm; in series [3] (90 minutes post-inhalation), 69±13 bpm. Further, the “mean diastolic blood pressure” value in series [3] (30 minutes post-inhalation) came to 75±10 mm Hg; in series [3] (90 minutes post-inhalation) it was 81±12 mm Hg. For the same molecule, the “mean systolic blood pressure” value amounted to 122±10 mm Hg in series [3] (30 minutes post-inhalation) and 121±11 mm Hg in series [3] (90 minutes post-inhalation). In addition, the “time to full recovery from light headedness” value in series [3] (all the other patients) was not above 30 min; in series [3] (three patients), not above 15 min. The “patients experiencing light headedness” value in series [3] (first 10 minutes following inhalation, seven of eight patients) is on record as 87.5%. Moreover, the “adverse effects (overall)” value in series [3] is “minimal, reversible and well tolerated”; in series [3] (listed as THC) it was “minimal, reversible and receded rapidly”. In addition, the “increase of Cmax per mg of THC” value in series [4] (Volcano vaporizer, Abrams et al. 2007, 2011) was 6.1 to 9.0 ng/mL/mg; in series [4] (regular smoking cigarettes, Ohlsson, Hunault, Huestis), 0.6 to 4.6 ng/mL/mg. Further, the “mean Cmax increase per mg Δ^9-THC” value is on record as 3.54 ng/ml per mg in series [4] (after the first puff of a 1.75% Δ^9-THC cigarette) and 4.28 ng/ml per mg in series [4] (after the first puff of a 3.55% Δ^9-THC cigarette). For the same molecule, the “plasma Cmax per mg of Δ^9-THC administered” value in series [4] (intravenous administration, D'Souza et al. 2004) was 32.8 ng Δ^9-THC/ml plasma and 23.8 ng Δ^9-THC/ml plasma. In addition, the “inter-individual variability (CV) of Cmax” value in series [4] (oral administration) is on record as 42-115%; in series [4] (oromucosal route of delivery), 59-67%; in series [4] (smoking cigarettes), 32-115%; in series [4] (vaporizer) it was 47-85%. Further, the “time of peak plasma concentrations” value in series [4] (smoking products of cannabis) was 1 to 3 min. The bioavailability in series [4] (smoking route, listed as THC) is 2-56% and 2 to 56%. For the same molecule, the “first onset of effects” value in series [4] (smoking) is “about 7 minutes”. Besides, in series [5] (Ware et al. 2010, single smoke inhalation of 25±1 mg cannabis with 9.4% Δ^9-THC (2.35 mg), three times a day for 5 days), the “mean Cmax elevation” value was 45 ng/mL. For the same molecule, the “decrease in average daily pain intensity” value in series [5] (Ware et al. 2010, single smoke inhalation of 25±1 mg cannabis with 9.4% Δ^9-THC, three times a day for 5 days, compared to placebo) was 11.4%. For the same molecule, in series [5] (Wilsey et al. 2008, smoking 19 mg or 34 mg total available Δ^9-THC divided to 3 doses), the “reduction of neuropathic pain (plateau, ceiling effect)” value was 45%. In series [5] (Wilsey et al. 2013, THC dose increased to 28.2 mg), the “analgesic response compared with the 10.3 mg dose” value is “equianalgesic response”. Also, the “inter-individual variability (CV) of peak plasma THC concentration (Cmax)” value in series [1] (MDI device) was 25.3%. For the same molecule, the “increase of Cmax per mg of THC available in the cannabis used (mean)” value in series [1] (pulmonary delivery with the MDI device) is 12.3 ng/mL/mg. Also, the “time of first detection in blood sample post-inhalation” value in series [1] (six patients without residual plasma THC at baseline) came out at 1 min.
